Measurements taken from the C3SDB collision cross section collection.

Settings: [M+H]+; instrument: TW; Major Mix IMS/Tof Calibration Kit (Waters)

Row | SMILES | collision cross section (N2)
1 | CCC(=O)C(CC(C)N(C)C)(c1ccccc1)c1ccccc1 (centres undefined) [Methadone] | 177.7 Å²
2 | COC(=O)C(c1ccccc1)C1CCCCN1 (centres undefined) [Methylphenidate] | 154.2 Å²
3 | Cc1ncc([N+](=O)[O-])n1CCO [Metronidazole] | 132.4 Å²
4 | Cc1ncc2n1-c1ccc(Cl)cc1C(c1ccccc1F)=NC2 [Midazolam] | 172.8 Å²
5 | CN1CC[C@]23c4c5ccc(O)c4O[C@H]2[C@@H](O)C=C[C@H]3[C@H]1C5 [Morphine] | 164 Å²
6 | Nc1ccc2c(c1)C(c1ccccc1)=NCC(=O)N2 [Nitrazepam-M 7-amino] | 158.1 Å²
7 | O=C1Nc2ccc(Cl)cc2C(c2ccccc2)=NC1O (centres undefined) [Oxazepam] | 162.3 Å²
8 | COc1ccc2c3c1O[C@H]1C(=O)CC[C@@]4(O)[C@@H](C2)N(C)CC[C@]314 [Oxycodone] | 168.3 Å²
9 | OCCN1CCN(CCCN2c3ccccc3Sc3ccc(Cl)cc32)CC1 [Perphenazine] | 193.2 Å²
10 | O=C1CN=C(c2ccccc2)c2cc(Cl)ccc2N1CC1CC1 [Prazepam] | 174 Å²
11 | COc1cc2nc(N3CCN(C(=O)c4ccco4)CC3)nc(N)c2cc1OC [Prazosin] | 192.7 Å²
12 | CN1CCN(CCCN2c3ccccc3Sc3ccc(Cl)cc32)CC1 [Prochlorperazine] | 183.7 Å²
13 | CN(C)CCc1c[nH]c2cccc(OP(=O)(O)O)c12 [Psilocybine] | 157.3 Å²
14 | Cc1nc2n(c(=O)c1CCN1CCC(c3noc4cc(F)ccc34)CC1)CCCC2 [Risperidone] | 205.5 Å²
15 | CCN(C)C(=O)Oc1cccc([C@H](C)N(C)C)c1 [Rivastigmine] | 165 Å²
16 | CC(C)NCC(O)c1ccc(NS(C)(=O)=O)cc1 (centres undefined) [Sotalol] | 167 Å²
17 | C[C@]12Cc3cn[nH]c3C[C@@H]1CC[C@@H]1[C@@H]2CC[C@@]2(C)[C@H]1CC[C@]2(C)O [Stanozolol] | 188.1 Å²
18 | O=C1C[C@@H]2OCC=C3CN4CC[C@]56c7ccccc7N1[C@H]5[C@H]2[C@H]3C[C@H]46 [Strychnine] | 172 Å²
19 | Cc1cc(NS(=O)(=O)c2ccc(N)cc2)no1 [Sulfamethoxazole] | 151 Å²

More lines, now with the values ahead:

Row | collision cross section (N2) | SMILES
20 | 196.3 Å² | CS(=O)(=O)c1ccc2c(c1)N(CCCN1CCC(C(N)=O)CC1)c1ccccc1S2 [Metopimazine]
21 | 211.7 Å² | CCc1nn(CCCN2CCN(c3cccc(Cl)c3)CC2)c(=O)n1CCOc1ccccc1 [Nefazodone]
22 | 182.2 Å² | CCOC(=O)C1=C(C)NC(C)=C(C(=O)OC)C1c1cccc([N+](=O)[O-])c1 (centres undefined) [Nitrendipine]
23 | 173.7 Å² | Cc1nccn1CC1CCc2c(c3cccc(O)c3n2C)C1=O (centres undefined) [Ondansetron-M 8-hydroxy]
24 | 189.2 Å² | CCC(=O)NS(=O)(=O)c1ccc(-c2c(-c3ccccc3)noc2C)cc1 [Parecoxib]
25 | 186.4 Å² | N#Cc1ccc2c(c1)N(CCCN1CCC(O)CC1)c1ccccc1S2 [Periciazine]
26 | 139.4 Å² | CCOc1ccc(NC(C)=O)cc1 [Phenacetin]
27 | 170.9 Å² | CN1C(C(=O)Nc2ccccn2)=C(O)c2ccccc2S1(=O)=O [Piroxicam]
28 | 197 Å² | CCOC(=O)[C@H](CCc1ccccc1)N[C@@H](C)C(=O)N1[C@H](C(=O)O)C[C@@H]2CCC[C@@H]21 [Ramipril]
29 | 202.9 Å² | OCc1cc([C@@H](O)CNCCCCCCOCCCCc2ccccc2)ccc1O [Salmeterol]
